These results are taken from US9725448B2, “Neprilysin inhibitors” (THERAVANCE BIOPHARMA R&D IP, LLC, priority 2011, dated 2017).

Each structure is given as a SMILES string.

The experiment deals with T1, human NEP (Homo sapiens, UniProt P08473).
T1 construct: purchased R&D Systems, Minneapolis, Minn; 1182-ZN
T1 sequence (P08473 52-750 limits assumed): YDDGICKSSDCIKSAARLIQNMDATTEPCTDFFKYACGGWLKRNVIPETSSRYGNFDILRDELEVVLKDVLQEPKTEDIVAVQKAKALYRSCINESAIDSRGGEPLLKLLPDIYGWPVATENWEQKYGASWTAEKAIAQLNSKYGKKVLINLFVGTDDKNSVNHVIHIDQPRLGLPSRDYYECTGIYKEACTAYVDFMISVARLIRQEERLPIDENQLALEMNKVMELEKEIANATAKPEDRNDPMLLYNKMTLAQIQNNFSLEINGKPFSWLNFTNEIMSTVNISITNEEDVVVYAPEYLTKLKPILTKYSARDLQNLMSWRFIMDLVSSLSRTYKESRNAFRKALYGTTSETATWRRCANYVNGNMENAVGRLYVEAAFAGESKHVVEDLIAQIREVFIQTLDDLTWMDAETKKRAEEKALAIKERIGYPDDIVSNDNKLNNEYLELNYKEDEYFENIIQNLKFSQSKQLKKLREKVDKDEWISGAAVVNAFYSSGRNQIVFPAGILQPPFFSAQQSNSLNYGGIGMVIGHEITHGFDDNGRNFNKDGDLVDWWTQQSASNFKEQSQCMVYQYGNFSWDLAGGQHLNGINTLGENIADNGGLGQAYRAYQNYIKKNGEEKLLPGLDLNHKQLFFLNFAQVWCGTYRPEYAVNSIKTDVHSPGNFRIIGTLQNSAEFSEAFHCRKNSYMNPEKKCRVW
The experiment can be described thus: In vitro enzyme inhibition assay at human NEP (fluorogenic peptide substrate). It is filed as biochemical. To be noted: pKi values at human NEP (recombinant), given as ranges. The procedure: The inhibitory activities of compounds at human and rat neprilysin (EC 3.4.24.11; NEP) and human angiotensin converting enzyme (ACE) were determined using in vitro assays as described below.
Recombinant human NEP and recombinant human ACE were obtained commercially (R&D Systems, Minneapolis, Minn., catalog numbers 1182-ZN and 929-ZN, respectively). The fluorogenic peptide substrate Mca-D-Arg-Arg-Leu-Dap-(Dnp)-OH (Medeiros et al. (1997) Braz. J. Med. Biol. Res. 30:1157-62; Anaspec, San Jose, Calif.) and Abz-Phe-Arg-Lys(Dnp)-Pro-OH (Araujo et al. (2000) Biochemistry 39:8519-8525; Bachem, Torrance, Calif.) were used in the NEP and ACE assays respectively.
The assays were performed in 384-well white opaque plates at 37° C. using the fluorogenic peptide substrates at a concentration of 10 μM in Assay Buffer (NEP: 50 mM HEPES, pH 7.5, 100 mM NaCl, 0.01% polyethylene glycol sorbitan monolaurate (Tween-20), […]; ACE: 50 mM HEPES, pH 7.5, 100 mM NaCl, 0.01% Tween-20, 1 μM ZnSO4).
Test compounds were assayed over the range of concentrations from 10 μM to 20 pM. Test compounds were added to the enzymes and incubated for 30 minute at 37° C. prior to initiating the reaction by the addition of substrate. Reactions were terminated after 20 minutes of incubation at 37° C. by the addition of glacial acetic acid to a final concentration of 3.6% (v/v).
Plates were read on a fluorometer with excitation and emission wavelengths set to 320 nm and 405 nm, respectively. Inhibition constants were obtained by nonlinear regression of the data using the equation (GraphPad Software, Inc., San Diego, Calif.): ν=ν0/[1+(I/K′)] where ν is the reaction rate, ν0 is the uninhibited reaction rate, I is the inhibitor concentration and K′ is the apparent inhibition constant.
Compounds of the invention were tested in this assay and found to have pKi values at human NEP as follows.
As to `C[C@@](O)(CN(Cc1ccc(-c2cccc(F)c2)cc1)NC(=O)c1cc(O)no1)C(=O)O` [Example 7-20, (R)-3-[N-(3′-Fluorobiphenyl-4-ylmethyl)-N′-(3-hydroxy-isoxazole-5-carbonyl)-hydrazino]-2-hydroxy-2-methyl-propionic acid], the Ki (usually a measure of affinity in units of concentration, obtained from inhibition or displacement) was 0.00126 to 0.01 µM.
The value for `CC(O)(CN(Cc1ccc(-c2ccccc2)cc1)NC(=O)c1cc(O)n[nH]1)C(=O)O` (stereo not drawn) [Example 4-5, 3-[N-Biphenyl-4-ylmethyl-N′-(5-hydroxy-2H-pyrazole-3-carbonyl)-hydrazino]-2-hydroxy-2-methyl-propionic acid] was 0.0126 to 0.1 µM; that for `CC(=O)c1cc(C(=O)N[C@H](Cc2ccc(-c3ccccc3)cc2)CC(C)(C)C(=O)O)[nH]n1` [Example 9-18, (R)-4-[(5-Acetyl-2H-pyrazole-3-carbonyl)-amino]-5-biphenyl-4-yl-2,2-dimethyl-pentanoic acid] was 0.0126 to 0.1 µM.
To `C[C@@](O)(C[C@@H](Cc1ccc(-c2ccccc2)cc1)NC(=O)c1cc(C(=O)O)n[nH]1)C(=O)O` [Example 2-13, 5-((1R,3R)-1-Biphenyl-4-ylmethyl-3-carboxy-3-hydroxy-butylcarbamoyl)-1H-pyrazole-3-carboxylic acid] belongs no more than 0.001 µM.
To `C[C@](O)(C[C@@H](Cc1ccc(-c2ccccc2)cc1)NC(=O)c1cc(C(=O)O)[nH]n1)C(=O)O` [Example 2-11, 5-((1R,3S)-1-Biphenyl-4-ylmethyl-3-carboxy-3-hydroxy-butylcarbamoyl)-2H-pyrazole-3-carboxylic acid] belongs 0.00126 to 0.01 µM.
On to `CC(O)(CN(Cc1ccc(-c2ccccc2)cc1)NC(=O)c1cc(C(=O)O)n[nH]1)C(=O)O` (stereo not drawn) [Example 4-6, 5-[N′-Biphenyl-4-ylmethyl-N′-(2-carboxy-2-hydroxy-propyl)-hydrazinocarbonyl]-1H-pyrazole-3-carboxylic acid], for which the Ki was 0.00126 to 0.01 µM.
The value for `CC(O)(CN(Cc1ccc(-c2ccccc2)cc1)NC(=O)c1cc(C(=O)N2CCCC2)n[nH]1)C(=O)O` (stereo not drawn) [Example 4-8, 3-{N-Biphenyl-4-ylmethyl-N′-[5-(pyrrolidine-1-carbonyl)-2H-pyrazole-3-carbonyl]-hydrazino}-2-hydroxy-2-methyl-propionic acid] was 0.0126 to 0.1 µM; that for `C[C@@](O)(CN(Cc1ccc(-c2cc(Cl)ccc2Cl)cc1)NC(=O)c1cc(O)no1)C(=O)O` [Example 7-19, (R)-3-[N-(2′,5′-Dichlorobiphenyl-4-ylmethyl)-N′-(3-hydroxy-isoxazole-5-carbonyl)-hydrazino]-2-hydroxy-2-methyl-propionic acid] was no more than 0.001 µM.
Turning to `CN(C)C(=O)c1cc(C(=O)NN(Cc2ccc(-c3cccc(Cl)c3)cc2)C[C@@](C)(O)C(=O)O)[nH]n1` [Example 7-9, (R)-3-[N-(3′-Chlorobiphenyl-4-ylmethyl)-N′-(5-dimethylcarbamoyl-2H-pyrazole-3-carbonyl)-hydrazino]-2-hydroxy-2-methyl-propionic acid], the Ki is 0.0126 to 0.1 µM.
The value for `CC(O)(CN(Cc1ccc(-c2ccccc2)cc1)NC(=O)c1cnn[nH]1)C(=O)O` (stereo not drawn) [Example 4-1, 3-[N-Biphenyl-4-ylmethyl-N′-(3H-[1,2,3]triazole-4-carbonyl)-hydrazino]-2-hydroxy-2-methyl-propionic acid] was 0.0126 to 0.1 µM.
The value for `CC(C)(C[C@@H](Cc1ccc(-c2ccccc2)cc1)NC(=O)c1ncn[nH]1)C(=O)O` [Example 9-4, (R)-5-Biphenyl-4-yl-2,2-dimethyl-4-[(2H-[1,2,4]triazole-3-carbonyl)-amino]-pentanoic acid] was 0.0126 to 0.1 µM.
To `C[C@@](O)(CN(Cc1ccc(-c2cc(Cl)ccc2F)cc1)NC(=O)c1c[nH]c(=O)o1)C(=O)O` [Example 7-22, (R)-3-[N-(5′-Chloro-2′-fluorobiphenyl-4-ylmethyl)-N′-(2-oxo-2,3-dihydro-oxazole-5-carbonyl)-hydrazino]-2-hydroxy-2-methyl-propionic acid] belongs 0.00126 to 0.01 µM; to `C[C@@](O)(C[C@@H](Cc1ccc(-c2ccccc2)cc1)NC(=O)c1cnc(O)nc1)C(=O)O` [Example 2-9, (2R,4R)-5-Biphenyl-4-yl-2-hydroxy-4-[(2-hydroxy-pyrimidine-5-carbonyl)-amino]-2-methyl-pentanoic acid], no more than 0.001 µM.
Consider `CC(O)(C[C@@H](Cc1ccc(-c2ccccc2)cc1)NC(=O)c1cc(Cl)c2nn[nH]c2c1)C(=O)O` (stereo partly drawn) [Example 2-5, (R)-5-Biphenyl-4-yl-4-[(7-chloro-3H-benzotriazole-5-carbonyl)-amino]-2-hydroxy-2-methyl-pentanoic acid], for which the inhibition constant Ki is 0.00126 to 0.01 µM.
To `C[C@@](O)(CN(Cc1ccc(-c2cc(Cl)cc(Cl)c2)cc1)NC(=O)c1cc(O)no1)C(=O)O` [Example 7-13, (R)-3-[N-(3′,5′-Dichlorobiphenyl-4-ylmethyl)-N′-(3-hydroxy-isoxazole-5-carbonyl)-hydrazino]-2-hydroxy-2-methyl-propionic acid] belongs 0.0126 to 0.1 µM; to `O=C(N[C@H](Cc1ccc(-c2ccccc2)cc1)CC1(C(=O)O)CC1)c1cc(O)no1` [Example 11-5, 1-{(R)-3-Biphenyl-4-yl-2-[(3-hydroxy-isoxazole-5-carbonyl)-amino]-propyl}-cyclopropanecarboxylic acid], no more than 0.001 µM.
The value for `C[C@@](O)(CN(Cc1ccc(-c2cc(Cl)ccc2F)cc1)NC(=O)c1cn(O)nn1)C(=O)O` [Example 7-3, (R)-3-[N-(5′-Chloro-2′-fluorobiphenyl-4-ylmethyl)-N′-(1-hydroxy-1H-[1,2,3]triazole-4-carbonyl)-hydrazino]-2-hydroxy-2-methyl-propionic acid] was no more than 0.001 µM.
The value for `CC(O)(C[C@@H](Cc1ccc(-c2ccccc2)cc1)NC(=O)c1n[nH]c(Cl)n1)C(=O)O` (stereo partly drawn) [Example 2-3, (R)-5-Biphenyl-4-yl-4-[(5-chloro-2H-[1,2,4]triazole-3-carbonyl)-amino]-2-hydroxy-2-methyl-pentanoic acid] was 0.0126 to 0.1 µM; that for `CC(O)(CN(Cc1ccc(-c2ccccc2)cc1)NC(=O)c1cnc(O)nc1)C(=O)O` (stereo not drawn) [Example 4-4, 3-[N-Biphenyl-4-ylmethyl-N′-(2-hydroxy-pyrimidine-5-carbonyl)-hydrazino]-2-hydroxy-2-methyl-propionic acid] was 0.0126 to 0.1 µM.
On to `O=C(N[C@H](Cc1ccc(-c2ccccc2)cc1)CC1(C(=O)O)CC1)c1cnn[nH]1` [Example 11-1, 1-{(R)-3-Biphenyl-4-yl-2-[(3H-[1,2,3]triazole-4-carbonyl)-amino]-propyl}-cyclopropanecarboxylic acid], for which the Ki is 0.0126 to 0.1 µM.
The value for `C[C@@](O)(CN(Cc1ccc(-c2ccccc2Cl)cc1)NC(=O)c1cc(O)no1)C(=O)O` [Example 7-15, (R)-3-[N-(2′-Chlorobiphenyl-4-ylmethyl)-N′-(3-hydroxy-isoxazole-5-carbonyl)-hydrazino]-2-hydroxy-2-methyl-propionic acid] was 0.0126 to 0.1 µM; that for `CC(C)(C[C@@H](Cc1ccc(-c2ccccc2)cc1)NC(=O)c1cc(C(=O)N2CCC[C@H]2C(=O)O)n[nH]1)C(=O)O` [Example 9-11, (S)-1-[5-((R)-1-Biphenyl-4-ylmethyl-3-carboxy-3-methyl-butylcarbamoyl)-1H-pyrazole-3-carbonyl]-pyrrolidine-2-carboxylic acid] was 0.00126 to 0.01 µM.
`C[C@@](O)(CN(Cc1ccc(-c2cccc(Cl)c2)cc1)NC(=O)c1cc(C(=O)O)ncn1)C(=O)O` [Example 7-26, 6-[N′—((R)-2-Carboxy-2-hydroxy-propyl)-N′-(3′-chlorobiphenyl-4-ylmethyl)-hydrazinocarbonyl]-pyrimidine-4-carboxylic acid]: the Ki was no more than 0.001 µM.
The value for `O=C(N[C@H](Cc1ccc(-c2ccccc2)cc1)CC1(C(=O)O)CC1)c1cnc(O)nc1` [Example 11-8, 1-{(R)-3-Biphenyl-4-yl-2-[(2-hydroxy-pyrimidine-5-carbonyl)-amino]-propyl}-cyclopropanecarboxylic acid] was 0.00126 to 0.01 µM.
To `C[C@@](O)(CN(Cc1ccc(-c2cccc(Cl)c2)cc1)NC(=O)c1cn(O)nn1)C(=O)O` [Example 7-2, (R)-3-[N-(3′-Chlorobiphenyl-4-ylmethyl)-N′-(1-hydroxy-1H-[1,2,3]triazole-4-carbonyl)-hydrazino]-2-hydroxy-2-methyl-propionic acid] belongs 0.00126 to 0.01 µM; to `C[C@@](O)(CN(Cc1ccc(-c2cccc(Cl)c2)cc1)NC(=O)c1c[nH]c(=O)o1)C(=O)O` [Example 7-21, (R)-3-[N-(3′-Chlorobiphenyl-4-ylmethyl)-N′-(2-oxo-2,3-dihydro-oxazole-5-carbonyl)-hydrazino]-2-hydroxy-2-methyl-propionic acid], 0.00126 to 0.01 µM.
The value for `C[C@@](O)(CN(Cc1ccc(-c2cccc(Cl)c2)cc1)NC(=O)c1cnn[nH]1)C(=O)O` [Example 7-1, (R)-3-[N-(3′-Chlorobiphenyl-4-ylmethyl)-N′-(3H-[1,2,3]triazole-4-carbonyl)-hydrazino]-2-hydroxy-2-methyl-propionic acid] was 0.00126 to 0.01 µM.
